# Tests used:
# [1] = target: T1, Ulex Europaeus Agglutinin I (UEA I) (Ulex europaeus, UniProt P22972); experiment: ITC (control lectin); format: binding
# T1 sequence (P22972 1-243): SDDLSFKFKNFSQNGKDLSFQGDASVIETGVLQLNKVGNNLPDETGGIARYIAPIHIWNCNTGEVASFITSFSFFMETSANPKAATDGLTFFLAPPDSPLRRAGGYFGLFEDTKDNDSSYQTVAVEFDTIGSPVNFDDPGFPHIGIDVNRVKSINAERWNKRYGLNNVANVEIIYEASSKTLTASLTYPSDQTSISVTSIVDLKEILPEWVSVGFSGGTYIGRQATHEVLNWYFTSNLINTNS
# RgGH98 = target: T2, RgGH98; experiment: crystal structure ([…] Å), ITC and STD NMR; format: binding, Mediterraneibacter gnavus
# T2 construct: gene RGna_RS10325; 44–946 aa (N-term GBLD, catalytic domain, C-term domain)
Kd [1],SMILES,Kd (RgGH98)
10.3 µM,"CC(=O)N[C@H]1C(O)O[C@H](CO)[C@@H](O[C@@H]2O[C@H](CO)[C@H](O)[C@H](O)[C@H]2O[C@@H]2O[C@@H](C)[C@@H](O)[C@@H](O)[C@@H]2O)[C@@H]1O (some centres unmarked) [BgH, blood group H trisaccharide]",
,"CC(=O)N[C@H]1[C@@H](O[C@H]2[C@@H](O)[C@@H](CO)O[C@@H](O[C@H]3[C@H](O)[C@@H](NC(C)=O)C(O)O[C@@H]3CO)[C@@H]2O[C@@H]2O[C@@H](C)[C@@H](O)[C@@H](O)[C@@H]2O)O[C@H](CO)[C@H](O)[C@@H]1O (some centres unmarked) [BgA II, blood group A tetrasaccharide type II]",490 µM

# From PMC8730463, “The human gut symbiont Ruminococcus gnavus shows specificity to blood group A antigen during mucin glycan foraging: Implication for niche colonisation in the gastrointestinal tract” (PLoS Biology, 2021)
